Tests used:
soleus muscles = experiment: Measurement of force in an in vitro model: isolated rat nerve-muscle preparation with tubocurarine; details: for activation at 50 µM: Rattus norvegicus, 40 min, percentage of initial force restored after 40 mins with 50 µM test compound, tubocurarine (115 nM) for 90 mins, read-out: Point increase
Procedure: Recovery of force is quantified as the percentage of the force prior to tubocurarine that is recovered by the compound.
The current invention relates to compounds that inhibit CIC-1 ion channels and increase muscle excitability and thereby improve muscle function in clinical conditions where muscle activation is failing. Such conditions result in loss of contractile function of skeletal muscle, weakness and excessive fatigue. In this series of experiments the compounds were tested for their ability to restore contractile function of isolated rat muscle when the neuromuscular transmission had been compromised akin to neuromuscular disorders.
Experimentally, soleus muscles from 4-5 wk old rats were isolated with the motor nerve remaining attached. The nerve-muscle preparations were mounted in experimental setups that enabled electrical stimulation of the motor nerve. Stimulation of the motor nerve led to activation of the muscle fibres and ensuing force production that was recorded.
After mounting the nerve-muscle preparation in the experimental setup, the contractile function of the muscle was initially assessed under the control conditions (Figure 2A). […] The experimental condition mimics the failing neuromuscular transmission in a range of neuromuscular disorders. After addition of tubocurarine the contractile force declined over the next 90 mins to 10-50 % of the control force. 50 µM of the test compound was then added and the contractile force recovered despite the continued presence of tubocurarine. To quantify the ability of the compound to restore force the percentage of the initial force that was restored was determined after 40 mins of compound exposure (Figure 2B) and the point increase is reported in Table 3. Table 3: Percentage increase of initial force that was restored using compounds of the invention

CIC-1 channels = target: T1, CIC-1 channels (Rattus norvegicus, UniProt P35524); experiment: Electrophysiological measurement of compound inhibition of CIC-1 in rat muscle (Gm, three micro-electrodes technique); assay type: cell-based; details: reduction of Gm in fibres of whole rat soleus muscles, approx. 30°C; n = number of experiments
T1 construct: from tissue; host or cells: intact soleus muscle of 12-14-week old Wistar rats
T1 sequence (P35524 1-994): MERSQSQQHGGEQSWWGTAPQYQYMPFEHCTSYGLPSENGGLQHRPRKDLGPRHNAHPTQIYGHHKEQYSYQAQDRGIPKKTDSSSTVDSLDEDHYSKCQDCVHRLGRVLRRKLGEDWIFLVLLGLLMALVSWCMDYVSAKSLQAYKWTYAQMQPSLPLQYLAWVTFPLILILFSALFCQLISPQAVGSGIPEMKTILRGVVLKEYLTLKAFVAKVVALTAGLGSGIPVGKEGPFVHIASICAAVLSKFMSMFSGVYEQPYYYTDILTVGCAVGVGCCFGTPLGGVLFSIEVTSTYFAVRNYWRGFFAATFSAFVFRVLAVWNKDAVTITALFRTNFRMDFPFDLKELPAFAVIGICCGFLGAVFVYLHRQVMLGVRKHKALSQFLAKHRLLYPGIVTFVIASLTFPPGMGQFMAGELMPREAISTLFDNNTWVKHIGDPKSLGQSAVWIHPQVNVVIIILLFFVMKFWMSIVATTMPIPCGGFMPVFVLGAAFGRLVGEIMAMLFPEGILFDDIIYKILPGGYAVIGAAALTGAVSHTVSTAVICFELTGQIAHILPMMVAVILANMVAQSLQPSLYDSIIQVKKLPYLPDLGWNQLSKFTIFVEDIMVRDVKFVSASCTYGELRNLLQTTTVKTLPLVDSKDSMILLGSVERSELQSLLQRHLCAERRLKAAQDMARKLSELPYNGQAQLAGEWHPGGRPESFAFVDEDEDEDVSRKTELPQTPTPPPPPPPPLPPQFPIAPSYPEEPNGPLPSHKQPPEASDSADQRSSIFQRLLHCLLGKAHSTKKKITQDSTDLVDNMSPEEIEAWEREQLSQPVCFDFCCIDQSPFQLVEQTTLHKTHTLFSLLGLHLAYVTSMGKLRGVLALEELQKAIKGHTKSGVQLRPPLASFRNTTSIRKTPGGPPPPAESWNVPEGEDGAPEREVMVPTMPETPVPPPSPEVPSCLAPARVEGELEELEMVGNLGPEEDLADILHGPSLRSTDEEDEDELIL
Text: Table 2: Inhibition of CIC-1 ion channel using compounds of the invention

human CIC-1 channels = target: T2, human CIC-1 channels (Homo sapiens, UniProt P35523); experiment: Automated patch-clamp on human CIC-1 expressed in CHO cells; assay type: cell-based; details: difference in half activation voltage, compound added intracellularly vs control cell patches; positive shift = CIC-1 inhibition
T2 construct: host or cells: CHO cells constitutively expressing human ClC-1
T2 sequence (P35523 whole entry): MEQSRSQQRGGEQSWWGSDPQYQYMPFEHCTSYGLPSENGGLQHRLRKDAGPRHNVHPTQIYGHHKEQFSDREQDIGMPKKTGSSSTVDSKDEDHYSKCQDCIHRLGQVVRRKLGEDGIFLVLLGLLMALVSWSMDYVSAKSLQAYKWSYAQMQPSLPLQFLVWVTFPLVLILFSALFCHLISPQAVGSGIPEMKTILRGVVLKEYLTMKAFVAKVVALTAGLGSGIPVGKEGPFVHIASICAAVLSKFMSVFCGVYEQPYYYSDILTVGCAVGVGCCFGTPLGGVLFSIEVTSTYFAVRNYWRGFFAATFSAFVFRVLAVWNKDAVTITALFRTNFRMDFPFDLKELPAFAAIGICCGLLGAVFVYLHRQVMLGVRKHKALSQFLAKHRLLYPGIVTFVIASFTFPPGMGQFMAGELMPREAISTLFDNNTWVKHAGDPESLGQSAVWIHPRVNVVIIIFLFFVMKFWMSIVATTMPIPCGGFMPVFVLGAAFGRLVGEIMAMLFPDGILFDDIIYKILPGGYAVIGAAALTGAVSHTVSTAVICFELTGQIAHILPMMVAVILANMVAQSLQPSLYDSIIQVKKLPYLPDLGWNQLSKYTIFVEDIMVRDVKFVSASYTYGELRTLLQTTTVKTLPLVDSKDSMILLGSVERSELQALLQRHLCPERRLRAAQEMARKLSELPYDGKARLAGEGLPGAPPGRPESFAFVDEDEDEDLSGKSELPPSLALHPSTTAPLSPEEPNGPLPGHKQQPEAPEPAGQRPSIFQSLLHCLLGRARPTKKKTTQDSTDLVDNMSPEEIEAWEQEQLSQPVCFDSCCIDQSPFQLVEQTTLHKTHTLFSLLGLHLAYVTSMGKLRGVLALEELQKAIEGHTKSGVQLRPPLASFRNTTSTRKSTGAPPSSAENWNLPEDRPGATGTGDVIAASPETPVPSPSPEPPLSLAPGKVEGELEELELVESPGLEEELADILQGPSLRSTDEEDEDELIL
Procedure: The investigatory goal of these experiments was to evaluate how compounds affect the open probability and current amplitude of human CIC-1 channels expressed in CHO cells. Experiments were performed using an automated patch clamp system that allowed high throughput testing of whole cell patches together with both intracellular and extracellular addition of compound.
Automated whole cell patch clamp experiments were performed with the Qpatch 16 system (Sophion Bioscience, Ballerup, Denmark) at room temperature. Data acquisition and analysis were performed in the Qassay software (ver. 5.6, Odense).
To evoke CIC-1 currents in whole cell patches, the membrane potential was initially stepped from a holding potential of -30 mV to +60 mV for 100 ms and then to various test voltages (sweeps) ranging from +120 mV to -140 mV in steps of 20 mV for 300 ms. To obtain tail currents, the membrane potential was stepped to -100 mV after each test voltage for 300 ms and then relaxed to -30 mV for 2 sec between sweeps (Figure 3). I/V relationships for whole cell instant and steady state current amplitudes were obtained by plotting average current densities at the beginning and at the end of the 300 ms step against the membrane potential (Figure 4).
In order to determine the relative overall open probability (P0), the instantaneous tail currents were normalized to the maximal tail current obtained following the most positive voltage step and plotted against the test voltage. Plots of normalized tail currents from each whole cell patch were then fitted to a Boltzmann function allowing determination of half activation voltages (V1/2, Figure 5).
For automated patch clamp experiments extracellular solutions contained: 2 mM CaCl2, 1 mM MgCl2, 10 mM HEPES, 4 mM KCI, 145 mM NaCl, 10 mM Glucose, pH adjusted to 7.4 with NaOH (2 M). Osmolality adjusted to -320 using sucrose.
Intracellular solutions contained: 80 mM CsF, 60 mM CsCI, 5/1 mM KOH/EGTA, 10 mM HEPES, 10 mM NaCl, pH adjusted to 7.2 with NaOH (2 M). Osmolality adjusted to -320 mOsm using sucrose.
Cells used in patch clamp experiments were Chinese hamster ovary cells (CHO) constitutively expressing human CIC-1 channels. The amino acid sequence encoded by the cDNA used to create this cell line was identical to the translated sequence for GenBank accession number NM_000083.2. Cells were produced by Charles River (Catalogue CT6175, Cleveland OH, USA) in a cryopreserved format. Experiments were performed on the cells directly after thawing (3 × 10^6 cells used in each experiment).
To evaluate the compound effect on CIC-1, when applied directly to the intracellular side of the cell membrane, the half activation voltage, V1/2, was determined from whole cell patches with compound added to the intracellular solution and then compared to V1/2 determined from control cell patches with only vehicle added to the intracellular solution. Additionally, the effect of extracellular added compound was evaluated by determine V1/2 and steady state current amplitudes before and after exchanging the extracellular solution to contain compound.
The difference in half activation voltage of CIC-1 channels, ΔV1/2, was determined as the difference between the cell patches treated intracellularly with compound and control cells patches and is reported in Table 4 below. A positive shift in ΔV1/2 is reflecting CIC-1 channel inhibition by the tested compound. P-values of <0.05 is considered significant. […]

Structure (SMILES) | EC50 (CIC-1 channels) | ΔV1/2 (human CIC-1 channels) | activation at 50 µM (soleus muscles) | average force (AUC) relative to initial force (soleus muscles; 50 µM compound added after 90 min incubation in tubocurarine, 3 muscles (Figure 2))
C[C@@H](Oc1ccc(Br)cc1F)C(=O)O [Compound A-28, (2R)-2-(4-bromo-2-fluorophenoxy)propanoi c acid] | – | – | -8% | –
C#CC[C@H](Oc1ccc(Br)cc1Cl)C(=O)O [Compound A-67, (2S)-2-(4-bromo-2-chlorophenoxy)pent-4-ynoic acid] | 9.4 ± 0.6 µM | 37.8 mV | 40% | –
C[C@H](Oc1ccc(Cl)cc1F)C(=O)O [Compound A-38, (2S)-2-(4-chloro-2-fluorophenoxy)propanoi c acid] | – | 17.4 mV | – | –
O=C(O)[C@@H](Oc1ccc(Br)cc1Cl)C1CCC1 [Compound A-71, (2S)-2-(4-bromo-2-chlorophenoxy)-2-cyclobutylacetic acid] | 10.1 ± 0.2 µM | – | 49% | –
CC(C)[C@@H](Oc1ccc(Br)cc1F)C(=O)O [Compound A-4, (2R)-2-(4-bromo-2-fluorophenoxy)-3-methylbutanoic acid] | > 80 µM | – | – | –
COC(=O)[C@H](C)Oc1ccc(Cl)cc1 [Compound A-54, methyl (2S)-2-(4-chlorophenoxy)propano ate] | 6.8 ± 1.3 µM | – | – | –
O=C(O)[C@@H](Oc1ccc(Br)cc1F)C(F)F [Compound A-9, (2R)-2-(4-bromo-2-fluorophenoxy)-3,3-difluoropropanoic acid] | – | 15.2 mV | – | –
C#CC[C@H](Oc1ccc(Br)cc1F)C(=O)O [Compound A-69, (2S)-2-(4-bromo-2-fluorophenoxy)pent-4-ynoic acid] | – | 32.6 mV | – | –
O=C(O)[C@H](CF)Oc1ccc(Br)cc1 [Compound A-26, (2R)-2-(4-bromophenoxy)-3-fluoropropanoic acid] | 3.8 ± 0.8 µM | 19.7 mV | 39% | –
[2H]c1cc(Br)cc([2H])c1O[C@@H](C)C(=O)O [Compound A-6, (2S)-2-[4-bromo(2,6-^2H2)phenoxy]propanoic acid] | – | 13.0 mV | 44% | –
CC[C@H](Oc1ccc(Br)cc1F)C(=O)O [Compound A-58, (2S)-2-(4-bromo-2-fluorophenoxy)butanoic acid] | 6.3 ± 2.4 µM | 28.2 mV | 44% | –
C[C@H](Oc1ccc(Br)cc1I)C(=O)O [Compound A-8, (2S)-2-(4-bromo-2-iodophenoxy)propanoic acid] | – | 9.4 mV | – | –
C[C@H](Oc1ccc(Br)cc1Br)C(=O)O [Compound A-40, (2S)-2-(2,4-dibromophenoxy)propan oic acid] | 4.2 ± 0.6 µM | 5.19 mV | 20% | –
[2H]CC([2H])[C@H](Oc1ccc(Br)cc1)C(=O)O (stereo partly drawn) [Compound A-76, (2S)-2-(4-bromophenoxy)(3,4-^2H2)butanoic acid] | – | 26.2 mV | 62% | –
O=C(O)[C@H](CF)Oc1ccc(Br)cc1F [Compound A-19, (2R)-2-(4-bromo-2-fluorophenoxy)-3-fluoropropanoic acid] | – | – | – | recovered

Continued, in another order:

EC50 (CIC-1 channels) | ΔV1/2 (human CIC-1 channels) | Structure (SMILES) | activation at 50 µM (soleus muscles) | average force (AUC) relative to initial force (soleus muscles; 50 µM compound added after 90 min incubation in tubocurarine, 3 muscles (Figure 2))
7.2 µM | – | CC(C)[C@H](Oc1ccc(Br)cc1Cl)C(=O)O [Compound A-73, (2S)-2-(4-bromo-2-chlorophenoxy)-3-methylbutanoic acid] | 51% | –
– | 19.0 mV | [2H][C@@](CF)(Oc1ccc(Br)cc1)C(=O)O [Compound A-82, (2R)-2-(4-bromophenoxy)-3-fluoro(2-^2H)propanoic acid] | 48% | –
8.7 ± 1.4 µM | 10.3 mV | O=C(O)[C@@H](Oc1ccc(Br)cc1F)C1CC1 [Compound A-89, (2S)-2-(4-bromo-2-fluorophenoxy)-2-cyclopropylacetic acid] | 33% | –
7.6 ± 1.6 µM | – | CC[C@H](Oc1ccc(Br)cc1Cl)C(=O)O [Compound A-78, (2S)-2-(4-bromo-2-chlorophenoxy)butanoic acid] | 38% | –
2.3 µM | – | CC[C@H](Oc1ccc(Br)cc1I)C(=O)O [Compound A-90, (2S)-2-(4-bromo-2-iodophenoxy)butanoic acid] | 57% | –
8 µM | – | O=C(O)[C@H](CCF)Oc1ccc(Br)cc1I [Compound A-83, (2S)-2-(4-bromo-2-iodophenoxy)-4-fluorobutanoic acid] | 35% | –
8.9 ± 3.2 µM | – | O=C(O)[C@@H](Oc1ccc(Br)cc1F)C1CCC1 [Compound A-86, (2S)-2-(4-bromo-2-fluorophenoxy)-2-cyclobutylacetic acid] | 45% | –
12.5 ± 1.4 µM | 10.3 mV | C[C@@H](F)[C@H](Oc1ccc(Br)cc1F)C(=O)O [Compound A-95, (2R,3R)-2-(4-bromo-2-fluorophenoxy)-3-fluorobutanoic acid] | 39% | –
5.9 ± 1.6 µM | – | CC(C)[C@H](Oc1ccc(Br)cc1I)C(=O)O [Compound A-88, (2S)-2-(4-bromo-2-iodophenoxy)-3-methylbutanoic acid] | 55% | –
10 ± 9.5 µM | 12.5 mV | O=C(O)[C@H](CCF)Oc1ccc(Br)cc1F [Compound A-85, (2S)-2-(4-bromo-2-fluorophenoxy)-4-fluorobutanoic acid] | 37% | –
